According to ChEMBL document CHEMBL3045032, “Triptolide suppresses lipopolysaccharide-induced activity of toll-like receptor 4 in mouse macrophage cell line RAW 264.7” (Med Chem Res, 2012):
The source made the active and inactive calls. The rule behind the calls is not given here.

Tests used:
Type in all cases: functional, cell-based
RAW264.7 [1] = experiment: Effect on HSP70 mRNA level in Mus musculus (mouse) RAW264.7 cells pretreated for 1 hr before treatment with 100 ng/ml LPS for 6 hr by RT-PCR analysis
RAW264.7 [2] = experiment: Inhibition of LPS-induced IL-6 level in Mus musculus (mouse) RAW264.7 cells pretreated for 1 hr before treatment with 100 ng/ml LPS for 6 hr by ELISA
RAW264.7 [3] = experiment: Inhibition of LPS-induced TNF-alpha level in Mus musculus (mouse) RAW264.7 cells pretreated for 1 hr before treatment with 100 ng/ml LPS for 6 hr by ELISA
RAW264.7 [4] = experiment: Effect on HSP70 protein level in Mus musculus (mouse) RAW264.7 cells pretreated for 1 hr before treatment with 100 ng/ml LPS for 6 hr by RT-PCR analysis
RAW264.7 [5] = experiment: Inhibition of LPS-induced TLR4 expression in Mus musculus (mouse) RAW264.7 cells pretreated for 1 hr before treatment with 100 ng/ml LPS for 6 hr by Western blot analysis
RAW264.7 [6] = experiment: Inhibition of LPS-induced TLR4 expression in Mus musculus (mouse) RAW264.7 cells pretreated for 1 hr before treatment with 100 ng/ml LPS for 6 hr by RT-PCR analysis

Structure (SMILES): CC(C)[C@]12O[C@H]1[C@@H]1O[C@]13[C@]1(O[C@H]1C[C@H]1C4=C(CC[C@@]13C)C(=O)OC4)[C@@H]2O
- Activity (RAW264.7 [1]): inactive
- inhibition (RAW264.7 [2]): Dose-dependent effect
- inhibition (RAW264.7 [3]): Dose-dependent effect
- Activity (RAW264.7 [4]): inactive
- inhibition (RAW264.7 [5]): Dose-dependent effect
- inhibition (RAW264.7 [6]): Dose-dependent effect
